Experiment in all cases: inhibition of tumour cell growth, NCI panel, 48 h
Assay [1] concerns A549 NSCLC.
Assay [2] relates to CCRF-CEM leukemia.
Assay [3] deals with HOP-62 NSCLC.
For assay [4], the system named is KM20L2 colon.
Assay [5] has as its system NCI-H226 lung.
Assay [6] deals with SF-539 CNS.
Assay [7] has as its system DMS 114 small cell lung.
Assay [8] relates to RPMI-8226 leukemia.

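Five compound concentrations were applied to cells in 96-well plates for 48 hours; endpoints were derived by simple linear interpolation of the resulting dose-response curve. GI50 marks 50% less growth. Definition used: TGI = concentration required for complete inhibition of growth.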 Where a SMILES comes first, the peptide text is derived from it. [ ]: non-standard residue; d: D form. Phe(4-Cl) = N[CH](Cc1ccc(Cl)cc1)C(=O)O

For the molecule `COc1c2c(cc3nc4ccccc4nc13)CCC(C(C)(C)O)C2` (stereo not given), the TGI in assay [1], in assay [2], in assay [3], in assay [4], in assay [5] and in assay [6] was above 100 µM in each case.
Take `COc1cc(OC(=O)c2c(O)cc(O)c(O)c2C)cc(C)c1C(=O)Oc1cc(C)c(C(=O)O)c(O)c1`: the TGI in assay [1], in assay [2], in assay [7], in assay [3], in assay [4] and in assay [5] was above 100 µM throughout. Besides, the TGI in assay [8] and in assay [6] was above 100 µM each time.
For the molecule `Nc1ccc(/C=C/c2ccnc3ccccc23)cc1`, the TGI in assay [1] worked out at 71.4 µM; in assay [2] it was 40.7 µM; in assay [7], 45.8 µM; in assay [3], 41.5 µM; in assay [4] it was 46.6 µM; in assay [5] it was 47.7 µM. The TGI was determined as 52.7 µM in assay [8] and 47.9 µM in assay [6].
As to `CC(C)N(C(=O)C12CC3CC(CC(C3)C1)C2)C(C)C`, the TGI in assay [1], in assay [2], in assay [7], in assay [3], in assay [4] and in assay [5] was above 50 µM in each case. The TGI in assay [8] and in assay [6] was above 50 µM throughout.
As for `CC(=O)[CH-]C(=O)c1ccccc1.CC(=O)[CH-]C(=O)c1ccccc1.O=C([O-])c1ccc([O-])cc1.O=C([O-])c1ccc([O-])cc1.[Ti+4]`, the GI50 in assay [1] is 69.1 µM; in assay [2], 15.4 µM; in assay [3], 35.1 µM; in assay [4], 51.1 µM; in assay [5] it was 37.3 µM; in assay [8] it was 20.7 µM. Further, the GI50 in assay [6] was 40.2 µM. Also, the TGI is above 100 µM in assay [1]; 62.8 µM in assay [2]; above 100 µM in assay [3]; above 100 µM in assay [4]; above 100 µM in assay [5]; 62.8 µM in assay [8]. Moreover, in assay [6], the TGI is above 100 µM.
As to `C=CCCCCCCCCC(=O)NS(=O)(=O)c1ccccc1`, the TGI in assay [1], in assay [7], in assay [3], in assay [4], in assay [5] and in assay [8] was above 100 µM each time. The same molecule showed a TGI in assay [6] above 100 µM.
On to `N#Cc1nc(C2OC(COC(=O)c3ccccc3)C(OC(=O)c3ccccc3)C2OC(=O)c2ccccc2)oc1N` (stereo not given), for which the TGI in assay [1] is above 100 µM; in assay [2] it was 34.6 µM; in assay [7], above 100 µM; in assay [3] it was above 100 µM; in assay [4] it was above 100 µM; in assay [5] it was above 100 µM. Besides, the values for the TGI in assay [8] and in assay [6] were 5.63 µM and above 100 µM, respectively.
For the molecule `COC(=O)c1cc(Br)c(Br)n1C`, the TGI in assay [1], in assay [2], in assay [7], in assay [3], in assay [4] and in assay [5] was above 100 µM throughout. The molecule further came in with a TGI in assay [6] above 100 µM.
For `N.N.N.N.N.O=C([O-])c1nn[n-]n1.[Cl-].[Co+3]`, the GI50 in assay [1], in assay [2], in assay [3], in assay [4], in assay [5] and in assay [8] was above 100 µM in each case. For the same molecule, the GI50 in assay [6] is above 100 µM. Also, the TGI in assay [1], in assay [2], in assay [3], in assay [4], in assay [5] and in assay [8] was above 100 µM throughout. The TGI in assay [6] is above 100 µM.
For the molecule `CC1=C(C)CC2(CCCCC2=O)S(=O)C1` (stereo not given), the TGI in assay [1], in assay [2], in assay [7], in assay [3], in assay [4] and in assay [5] was above 100 µM in each case. The TGI in assay [8] and in assay [6] was above 100 µM in each case.
As for `Cc1ccc2nc3c(C(=O)NCCN(C)C)cccc3nc2c1`, the TGI was above 100 µM in assay [1]; 11.6 µM in assay [7]; 14 µM in assay [3]; 18.2 µM in assay [4]; 10.4 µM in assay [5]; 40.8 µM in assay [8]. The same molecule had a TGI in assay [6] of 15.7 µM.
As for `Cc1ccc(N(C(=O)CC(=O)NN)C(=O)c2ccccc2Cl)cc1`, the TGI in assay [1], in assay [2], in assay [7], in assay [3], in assay [4] and in assay [5] was above 100 µM each time. In addition, the TGI in assay [8] and in assay [6] was above 100 µM each time.
For the molecule `Cc1ccc(S(=O)(=O)n2c(-c3ccccc3)c(-c3ccccc3)c3ccccc32)cc1`, the TGI in assay [1], in assay [2], in assay [7], in assay [3], in assay [4] and in assay [5] was above 100 µM each time. The TGI in assay [8] and in assay [6] was above 100 µM throughout.
`CC(C)(C)OC(=O)Cc1ccc2c(ccn2Cc2ccccc2)c1`: the TGI in assay [1] was above 100 µM; in assay [2], above 100 µM; in assay [7], above 100 µM; in assay [3] it was above 100 µM; in assay [4] it was 77.2 µM; in assay [5] it was above 100 µM. This molecule returned a TGI in assay [6] above 100 µM.
With `CC(O)C(NC(=O)C(Cc1ccccc1)NC(=O)C(NC(=O)C(CCCCN)NC(=O)C(Cc1c[nH]c2ccccc12)NC(=O)C(Cc1ccc(O)cc1)NC(=O)C(Cc1ccc(Cl)cc1)NC(=O)C(N)Cc1ccccc1)C(C)O)C(N)=O` (stereo not given) (H-F[Phe(4-Cl)]YWKTFT-NH2; configuration not given here), the TGI was 36 µM in assay [1]; 29.3 µM in assay [2]; 37.8 µM in assay [7]; 38.5 µM in assay [3]; 48.7 µM in assay [4]; 33.5 µM in assay [8]. The molecule also registered a TGI in assay [6] of 42.3 µM.

(Values after PubChem BioAssay (NCI).)
